In patent US7563462B2, “Methods for modulating eicosanoid metabolism” (The University of Texas MD Anderson Cancer Center, priority 2005, dated 2009):

Tests used:
PC3 cells [1] = test: Eicosanoid add-back to composition-treated PC3 cells; format: cell-based, human
[2] = system: human tumor prostate (PC3); test: Effect of 13-S-HODE on proliferation, PC3; format: cell-based; conditions: read-out: IC50 (inhibition of cancer cell line growth)
Description: (§1) The relative ability of 13-S-HODE to inhibit prostate and colon cancer cell lines with an IC50 of about 3-4 uM. This is of importance when compared to the content of 13-S-HODE in the inventive composition. That is, as shown in Table 2 above there is sufficient 13-S-HODE within the composition to account for inhibition of cell growth. No doubt other factors within the composition also contribute to its ability to inhibit prostate and colon tumor cell growth but the ability of 13-S-HODE within the composition to be able to do this is of obvious interest.

colon (LS174) = test: Effect of 13-S-HODE on proliferation, LS174; format: cell-based; conditions: Homo sapiens, read-out: IC50 (inhibition of cancer cell line growth)
Description: as §1

[3] = system: lung adenocarcinoma (A549); test: Effect of 13-S-HODE on proliferation, A549; format: cell-based, human
12-LOX = biological target: T1, 12-LOX (Homo sapiens, UniProt P18054); test: 12-HETE levels / 12-LOX activity in PC3 cells; format: cell-based; design: key: ↓ indicates reduction, inhibition, or downregulation; ↑ indicates enhancement, activation, or upregulation
T1 construct: endogenous in cells; host or cells: PC3 human prostate cancer cells
T1 sequence (P18054 1-663): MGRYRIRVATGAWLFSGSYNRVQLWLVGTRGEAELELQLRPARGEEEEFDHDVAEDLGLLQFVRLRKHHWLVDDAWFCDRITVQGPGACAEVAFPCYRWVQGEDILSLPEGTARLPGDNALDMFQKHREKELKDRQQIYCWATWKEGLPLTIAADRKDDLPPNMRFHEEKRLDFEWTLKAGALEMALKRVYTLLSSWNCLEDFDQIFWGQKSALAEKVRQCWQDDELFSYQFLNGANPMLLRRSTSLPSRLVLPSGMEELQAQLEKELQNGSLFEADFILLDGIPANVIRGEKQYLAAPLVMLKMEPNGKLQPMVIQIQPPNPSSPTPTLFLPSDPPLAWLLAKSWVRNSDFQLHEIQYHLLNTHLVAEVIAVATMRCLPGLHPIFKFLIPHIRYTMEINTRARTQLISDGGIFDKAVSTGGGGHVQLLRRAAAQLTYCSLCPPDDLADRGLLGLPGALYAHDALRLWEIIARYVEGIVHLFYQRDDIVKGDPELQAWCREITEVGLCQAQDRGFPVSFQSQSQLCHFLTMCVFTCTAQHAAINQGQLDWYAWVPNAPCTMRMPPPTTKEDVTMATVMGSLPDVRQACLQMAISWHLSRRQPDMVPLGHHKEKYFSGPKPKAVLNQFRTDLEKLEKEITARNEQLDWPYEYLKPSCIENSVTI

PC3 cells [4] = test: Cytotoxicity in PC3 cells; format: cell-based, human
PC3 cells [5] = test: Phosphoprotein analyses of PC3 cell lysates; format: cell-based, human; design: key to Cyclin D1 / Cyclin D3 / Bcl-XL / Bax / Bcl-2 / pAKT / survivin / pRb content / Rb content: ↓ indicates reduction, inhibition, or downregulation; ↑ indicates enhancement, activation, or upregulation; conditions: nontoxic concentrations
From the text: The data in Table 5 were derived from phosphoprotein analyses of PC3 cell lysates after treatment with nontoxic concentrations of either the inventive compositions or baicalein, a component of Scutellaria. Proteins were separated using gel electrophoresis and then the gel was probed with monoclonal antibodies to the proteins. The antibodies could detect differences in phosphorylation status of the proteins. Gels were then quantified using a densitometer. There are many similarities in the changes in phosphorylation status signaling similar up regulation or down regulation of proteins involved in cell cycle block (e.g. cyclin D1, cyclin D3 and pRB) or proteins associated with apoptosis (e.g. surviving, Bcl-XL and Bcl-2).

PC3 cells [6] = test: Cell cycle distribution by flow cytometry; format: cell-based, human
Description: The herbal product produces a clear G2/M accumulation of cells that is evident even at concentrations as low as 0.28 ul/ml. At higher concentrations, the G2/M phase is more evident as is a sub G0 peak indicative of apoptosis. Concomitant with the rise in numbers of cells in G2/M there is a progressive concentration-dependent fall of cells in the G1 portion of the cell cycle. Only 10% of control cells are routinely present at the G2/M phase, while treatment with 0.57 ul/ml of the inventive compositions results in greater than 40% of cells in a G2/M block. […] The G2/M percentage of cells is small (small dark shaded peak to the right in the figure. In the second plot (upper right) PC3 cells have been treated with 0.28 ul of the inventive compositions/ml tissue culture media. The size of the G2/M peak increases. The plot in the lower left (0.57 ul of the inventive compositions/ml) and in the lower right (1.14 ul/ml) show an increasing cell cycle block due to increased concentration of the inventive compositions.

PC3 cells [7] = test: Western blot of 5-LOX, 12-LOX and COX-2 protein in PC3 cells; format: cell-based, human
[8] = growth inhibitory concentrations of the inventive compositions

CCCCC/C=C\C/C=C\C/C=C\C=C\[C@@H](O)CCCC(=O)O [5-HETE] was tested, and the “cell proliferation after adding the eicosanoid to composition-treated PC3 cells” value (“cell proliferation” for short) (PC3 cells [1]; [8]) was “failed to block cellular proliferation”.

With CCCCC/C=C\C[C@H](O)/C=C/C=C\C/C=C\CCCC(=O)O [12-HETE] the “cell proliferation” value (PC3 cells [1]; inventive compositions 1 ul/ml) was “near doubling of cell proliferation”.

With CCCCCC(O)/C=C/C=C\CCCCCCCC(=O)O (stereo not drawn) [13-S-HODE, 13-hydroxyoctadeca-9Z, 11E-dienoic acid] the IC50 [2] was 3 to 4 µM, the IC50 (colon (LS174)) was 3 to 4 µM and the “inhibition of cell growth” value [3] was “not lung adenocarcinoma (A549) cell growth”.

For O=c1cc(-c2ccccc2)oc2cc(O)c(O)c(O)c12 [Baicalein, baicalein], the 12-LOX activity (12-LOX) was “↓”, the Cytotoxicity (PC3 cells [4]) was “Yes” and the Bax (PC3 cells [5]) was “↑”. The Bcl-2 (PC3 cells [5]) was “↓”, the Bcl-XL (PC3 cells [5]) was “↓” and the “Cyclin D1” value (PC3 cells [5]) was “↓”. For the same molecule, the “Cyclin D3” value (PC3 cells [5]) was “↓”, the P27 (PC3 cells [5]) was “Strong ↓” and the Rb content (PC3 cells [5]) was “↑”. For the same molecule, the p21 (PC3 cells [5]) was “Strong ↓”, the pAKT (PC3 cells [5]) was “↓” and the pRb content (PC3 cells [5]) was “↓”. The survivin (PC3 cells [5]) was “↓” and the Cell cycle block (PC3 cells [6]) was “Yes”.

CCCCC[C@H](O)/C=C/[C@H]1[C@H](O)CC(=O)[C@@H]1C/C=C\CCCC(=O)O [PGE2] was tested, and the “cell proliferation” value (PC3 cells [1]; [8]) was “failed to block cellular proliferation”.

CC(c1cc2ccccc2s1)N(O)C(N)=O (stereo not drawn) [Zileuton] was tested, and the “cellular content of 5-LOX protein (Western blot)” value (PC3 cells [7]) was “did not produce any change in relative 5-LOX enzyme content within cells”.
